Laboratory results taken from ChEMBL document CHEMBL1255475, “Mutant prevention concentrations of four carbapenems against gram-negative rods” (2010).

Tests used:
Escherichia coli [1] = experiment: Ratio of mutant prevention concentration to minimum Inhibitory concentration for beta-lactamase-positive ESBL-positive Escherichia coli E450; format: functional
Escherichia coli [2] = experiment: Ratio of mutant prevention concentration to minimum Inhibitory concentration for beta-lactamase-negative Escherichia coli E408; format: functional
Escherichia coli [3] = experiment: Ratio of mutant prevention concentration to minimum Inhibitory concentration for beta-lactamase-negative Escherichia coli E345; format: functional
Escherichia coli [4] = experiment: Ratio of mutant prevention concentration to minimum Inhibitory concentration for beta-lactamase-negative Escherichia coli E424; format: functional
Klebsiella pneumoniae [5] = experiment: Ratio of mutant prevention concentration to minimum Inhibitory concentration for beta-lactamase-positive ESBL-negative Klebsiella pneumoniae E472; format: functional
Escherichia coli [6] = experiment: Ratio of mutant prevention concentration to minimum Inhibitory concentration for beta-lactamase-positive ESBL-positive Escherichia coli E452; format: functional
Escherichia coli [7] = experiment: Ratio of mutant prevention concentration to minimum Inhibitory concentration for beta-lactamase-positive ESBL-positive Escherichia coli E460; format: functional
Escherichia coli [8] = experiment: Ratio of mutant prevention concentration to minimum Inhibitory concentration for beta-lactamase-positive ESBL-negative Escherichia coli E484; format: functional
Klebsiella pneumoniae [9] = experiment: Ratio of mutant prevention concentration to minimum Inhibitory concentration for beta-lactamase-negative Klebsiella pneumoniae E417; format: functional
Escherichia coli [10] = experiment: Ratio of mutant prevention concentration to minimum Inhibitory concentration for beta-lactamase-positive ESBL-negative Escherichia coli E430; format: functional
Klebsiella pneumoniae [11] = experiment: Ratio of mutant prevention concentration to minimum Inhibitory concentration for beta-lactamase-negative Klebsiella pneumoniae E359; format: functional
Escherichia coli [12] = experiment: Ratio of mutant prevention concentration to minimum Inhibitory concentration for beta-lactamase-positive ESBL-negative Escherichia coli E415; format: functional
Klebsiella pneumoniae [13] = experiment: Ratio of mutant prevention concentration to minimum Inhibitory concentration for beta-lactamase-positive ESBL-negative Klebsiella pneumoniae E474; format: functional
Klebsiella pneumoniae [14] = experiment: Ratio of mutant prevention concentration to minimum Inhibitory concentration for beta-lactamase-negative Klebsiella pneumoniae E357; format: functional
Escherichia coli [15] = experiment: Ratio of mutant prevention concentration to minimum Inhibitory concentration for beta-lactamase-positive ESBL-negative Escherichia coli E483; format: functional
Klebsiella pneumoniae [16] = experiment: Ratio of mutant prevention concentration to minimum Inhibitory concentration for beta-lactamase-positive ESBL-positive Klebsiella pneumoniae E476; format: functional
Escherichia coli [17] = experiment: Ratio of mutant prevention concentration to minimum Inhibitory concentration for beta-lactamase-positive ESBL-positive Escherichia coli E456; format: functional
Escherichia coli [18] = experiment: Ratio of mutant prevention concentration to minimum Inhibitory concentration for beta-lactamase-negative Escherichia coli E344; format: functional
Klebsiella pneumoniae [19] = experiment: Ratio of mutant prevention concentration to minimum Inhibitory concentration for beta-lactamase-positive ESBL-negative Klebsiella pneumoniae E481; format: functional
Acinetobacter baumannii [20] = experiment: Antibacterial activity against Acinetobacter baumannii A849 incubated for 24 h by agar dilution method; conditions: A849, 24 h
Pseudomonas aeruginosa [21] = experiment: Antibacterial activity against Pseudomonas aeruginosa P326 incubated up to 7 days by agar dilution method; format: functional; conditions: P326, 168 h
Pseudomonas aeruginosa [22] = experiment: Antibacterial activity against Pseudomonas aeruginosa P323 incubated up to 7 days by agar dilution method; format: functional; conditions: P323, 168 h
Pseudomonas aeruginosa [23] = experiment: Antibacterial activity against Pseudomonas aeruginosa P319 incubated up to 7 days by agar dilution method; format: functional; conditions: P319, 168 h
Pseudomonas aeruginosa [24] = experiment: Antibacterial activity against Pseudomonas aeruginosa P322 incubated up to 7 days by agar dilution method; format: functional; conditions: P322, 168 h
Acinetobacter baumannii [25] = experiment: Antibacterial activity against Acinetobacter baumannii A851 incubated for 24 h by agar dilution method; conditions: A851, 24 h
Acinetobacter baumannii [26] = experiment: Antibacterial activity against Acinetobacter baumannii A912 incubated for 24 h by agar dilution method; conditions: A912, 24 h
Acinetobacter baumannii [27] = experiment: Antibacterial activity against Acinetobacter baumannii A894 incubated up to 7 days by agar dilution method; format: functional; conditions: A894, 168 h
Pseudomonas aeruginosa [28] = experiment: Antibacterial activity against Pseudomonas aeruginosa P335 incubated up to 7 days by agar dilution method; format: functional; conditions: P335, 168 h
Acinetobacter baumannii [29] = experiment: Antibacterial activity against Acinetobacter baumannii A911 incubated for 24 h by agar dilution method; conditions: A911, 24 h
Acinetobacter baumannii [30] = experiment: Antibacterial activity against Acinetobacter baumannii A848 incubated up to 7 days by agar dilution method; format: functional; conditions: A848, 168 h
Acinetobacter baumannii [31] = experiment: Antibacterial activity against Acinetobacter baumannii A890 incubated up to 7 days by agar dilution method; format: functional; conditions: A890, 168 h
Acinetobacter baumannii [32] = experiment: Antibacterial activity against Acinetobacter baumannii A898 incubated for 24 hrs by agar dilution method; conditions: A898, 24 h
Pseudomonas aeruginosa [33] = experiment: Antibacterial activity against Pseudomonas aeruginosa P353 incubated up to 7 days by agar dilution method; format: functional; conditions: P353, 168 h
Pseudomonas aeruginosa [34] = experiment: Antibacterial activity against Pseudomonas aeruginosa P334 incubated up to 7 days by agar dilution method; format: functional; conditions: P334, 168 h
Acinetobacter baumannii [35] = experiment: Antibacterial activity against Acinetobacter baumannii A931 incubated for 24 hrs by agar dilution method; conditions: A931, 24 h
Pseudomonas aeruginosa [36] = experiment: Antibacterial activity against Pseudomonas aeruginosa P332 incubated up to 7 days by agar dilution method; format: functional; conditions: P332, 168 h
Acinetobacter baumannii [37] = experiment: Antibacterial activity against Acinetobacter baumannii A903 incubated up to 7 days by agar dilution method; format: functional; conditions: A903, 168 h
Pseudomonas aeruginosa [38] = experiment: Antibacterial activity against Pseudomonas aeruginosa P341 incubated up to 7 days by agar dilution method; format: functional; conditions: P341, 168 h
Pseudomonas aeruginosa [39] = experiment: Antibacterial activity against Pseudomonas aeruginosa P352 incubated up to 7 days by agar dilution method; format: functional; conditions: P352, 168 h
Acinetobacter baumannii [40] = experiment: Antibacterial activity against Acinetobacter baumannii A896 incubated for 24 h by agar dilution method; conditions: A896, 24 h
Pseudomonas aeruginosa [41] = experiment: Antibacterial activity against Pseudomonas aeruginosa P369 incubated up to 7 days by agar dilution method; format: functional; conditions: P369, 168 h
Acinetobacter baumannii [42] = experiment: Antibacterial activity against Acinetobacter baumannii A865 assessed as mutant prevention concentration after overnight incubation; format: functional
Pseudomonas aeruginosa [43] = experiment: Antibacterial activity against Pseudomonas aeruginosa P320 incubated up to 7 days by agar dilution method; format: functional; conditions: P320, 168 h
Acinetobacter baumannii [44] = experiment: Antibacterial activity against Acinetobacter baumannii A892 incubated for 24 h by agar dilution method; conditions: A892, 24 h
Acinetobacter baumannii [45] = experiment: Antibacterial activity against Acinetobacter baumannii A867 assessed as mutant prevention concentration after overnight incubation; format: functional
Acinetobacter baumannii [46] = experiment: Antibacterial activity against Acinetobacter baumannii A929 incubated up to 7 days by agar dilution method; format: functional; conditions: A929, 168 h
Acinetobacter baumannii [47] = experiment: Antibacterial activity against Acinetobacter baumannii A901 incubated up to 7 days by agar dilution method; format: functional; conditions: A901, 168 h
Acinetobacter baumannii [48] = experiment: Antibacterial activity against Acinetobacter baumannii A867 incubated for 24 h by agar dilution method; conditions: A867, 24 h

C[C@@H](O)[C@H]1C(=O)N2C(C(=O)O)=C(S[C@@H]3CN[C@H](C(=O)Nc4cccc(C(=O)O)c4)C3)[C@H](C)[C@H]12
16: Ratio (Escherichia coli [8]) | Ratio (Escherichia coli [15]) | Ratio (Escherichia coli [17])
2: Ratio (Klebsiella pneumoniae [9]) | Ratio (Klebsiella pneumoniae [11]) | Ratio (Klebsiella pneumoniae [19])
8: Ratio (Klebsiella pneumoniae [5]) | Ratio (Escherichia coli [6]) | Ratio (Klebsiella pneumoniae [13])
4: Ratio (Escherichia coli [2]) | Ratio (Escherichia coli [3]) | Ratio (Escherichia coli [4]) | Ratio (Escherichia coli [7]) | Ratio (Escherichia coli [12]) | Ratio (Klebsiella pneumoniae [14]) | Ratio (Klebsiella pneumoniae [16]) | Ratio (Escherichia coli [18])
>8: Ratio (Escherichia coli [10])
>16: Ratio (Escherichia coli [1])

C[C@@H](O)[C@H]1C(=O)N2C(C(=O)O)=C(S[C@@H]3CN[C@H](CNS(N)(=O)=O)C3)[C@H](C)[C@H]12 [DORIPENEM]
4 µg/mL: MIC (Acinetobacter baumannii [20]) | MIC (Pseudomonas aeruginosa [21]) | MIC (Acinetobacter baumannii [25]) | MIC (Acinetobacter baumannii [26]) | MIC (Acinetobacter baumannii [29]) | MIC (Acinetobacter baumannii [44]) | MIC (Acinetobacter baumannii [47]) | MIC (Acinetobacter baumannii [48])
8 µg/mL: MIC (Acinetobacter baumannii [30])
0.5 µg/mL: MIC (Pseudomonas aeruginosa [22]) | MIC (Pseudomonas aeruginosa [24]) | MIC (Acinetobacter baumannii [27]) | MIC (Pseudomonas aeruginosa [33]) | MIC (Pseudomonas aeruginosa [38]) | MIC (Acinetobacter baumannii [40])
8: Ratio (Escherichia coli [15]) | Ratio (Escherichia coli [17])
2 µg/mL: MIC (Pseudomonas aeruginosa [23]) | MIC (Pseudomonas aeruginosa [28]) | MIC (Acinetobacter baumannii [32]) | MIC (Acinetobacter baumannii [46])
4: Ratio (Escherichia coli [1]) | Ratio (Escherichia coli [6]) | Ratio (Escherichia coli [7]) | Ratio (Escherichia coli [8]) | Ratio (Escherichia coli [10]) | Ratio (Klebsiella pneumoniae [16]) | Ratio (Klebsiella pneumoniae [19])
>16: Ratio (Klebsiella pneumoniae [5])
2: Ratio (Escherichia coli [2]) | Ratio (Escherichia coli [3]) | Ratio (Escherichia coli [4]) | Ratio (Klebsiella pneumoniae [9]) | Ratio (Klebsiella pneumoniae [11]) | Ratio (Escherichia coli [12]) | Ratio (Klebsiella pneumoniae [14]) | Ratio (Escherichia coli [18])
64 µg/mL: MPC (Acinetobacter baumannii [42]) | MPC (Acinetobacter baumannii [45])
0.125 µg/mL: MIC (Pseudomonas aeruginosa [34])
16: Ratio (Klebsiella pneumoniae [13])
1 µg/mL: MIC (Acinetobacter baumannii [35]) | MIC (Acinetobacter baumannii [37]) | MIC (Pseudomonas aeruginosa [39])
0.25 µg/mL: MIC (Acinetobacter baumannii [31]) | MIC (Pseudomonas aeruginosa [36]) | MIC (Pseudomonas aeruginosa [41]) | MIC (Pseudomonas aeruginosa [43])

C[C@@H](O)[C@H]1C(=O)N2C(C(=O)O)=C(S[C@@H]3CN[C@H](C(=O)N(C)C)C3)[C@H](C)[C@H]12 [MEROPENEM]
0.5 µg/mL: MIC (Pseudomonas aeruginosa [22]) | MIC (Acinetobacter baumannii [31]) | MIC (Pseudomonas aeruginosa [38]) | MIC (Pseudomonas aeruginosa [41]) | MIC (Pseudomonas aeruginosa [43])
2 µg/mL: MIC (Pseudomonas aeruginosa [23]) | MIC (Pseudomonas aeruginosa [24]) | MIC (Acinetobacter baumannii [26]) | MIC (Acinetobacter baumannii [32]) | MIC (Pseudomonas aeruginosa [33]) | MIC (Acinetobacter baumannii [37]) | MIC (Pseudomonas aeruginosa [39]) | MIC (Acinetobacter baumannii [46]) | MIC (Acinetobacter baumannii [47])
0.25 µg/mL: MIC (Pseudomonas aeruginosa [34])
4 µg/mL: MIC (Acinetobacter baumannii [25]) | MIC (Pseudomonas aeruginosa [28]) | MIC (Acinetobacter baumannii [29])
1 µg/mL: MIC (Acinetobacter baumannii [27]) | MIC (Acinetobacter baumannii [35]) | MIC (Pseudomonas aeruginosa [36]) | MIC (Acinetobacter baumannii [40])
8 µg/mL: MIC (Acinetobacter baumannii [20]) | MIC (Pseudomonas aeruginosa [21]) | MIC (Acinetobacter baumannii [30]) | MIC (Acinetobacter baumannii [44]) | MIC (Acinetobacter baumannii [48])

C[C@@H](O)[C@H]1C(=O)N2C(C(=O)O)=C(SCCNC=N)C[C@H]12 [IMIPENEM ANHYDROUS]
32 µg/mL: MPC (Acinetobacter baumannii [42])
64 µg/mL: MPC (Acinetobacter baumannii [45])
